Patent US9085559B2, “Triazine-aryl-bis-indoles and process for preparation thereof” (COUNCIL OF SCIENTIFIC & INDUSTRIAL RESEARCH, priority 2010, dated 2015)

Assays:
PDE-4 = assay: Phosphodiesterase 4 assay ([3H]cAMP SPA), enzyme preparation from rat heart; format: biochemical; conditions: PDE-4 activity, dose 10 μg/ml
Protocol: FIG. 2. […] To examine whether IICT-TA67 inhibits PDE-4 activity in vitro, enzyme preparations were incubated in the absence or presence of different concentrations (1-20 μg/ml) of IICT-TA67 and breakdown of cAMP was monitored by β counter.
Table 1. Measurement of phosphodiesterase (PDE)-4 activity by compounds.
Heart was excised from anesthetized rat and transfer into normal saline solution. […] The homogenate was centrifuged at 500×g for 5 minute at 4° C. Then sup was taken for further centrifuged at 40,000×g for 30 minute (ultra centrifugation). After centrifugation supernatant was collected for phosphodiesterase assay. Protein concentration was estimated and for each assay, 2.5 μg protein (PDE enzyme preparation) was used.
Phosphodiesterase 4 assay: Phosphodiesterase 4 assay was conducted with [^3H] cAMP SPA enzyme assay (GE Amersham, UK) using 2.5 μg enzyme preparation for each well. Into each well 60 μl water, 10 μl assay buffer supplied with the kit, 10 μl compound (inhibitor), 10 μl PDE enzyme or homogenizing buffer (blank) and 10 μl radiolabel led cAMP ([^3H]cAMP, GE Amersham, UK) were added. To check activity of the enzyme without inhibitor 10 μl DMSO was added in place of inhibitor to a separate well. The reaction mixtures were incubated for 30 mi at 30° C. The reaction was stopped by adding 50 μl SPA bead supplied with the kit. It was then mixed well and allowed to stand at room temperature for 20 min. Breakdown of cAMP in each tube was monitored by β counter. The reading in each tube was obtained in counts per minute (CPM). The reading of the blank tube (without enzyme) was subtracted from each tube to normalize the counts. The enzyme activity was calculated by considering the CPM reading without any inhibitor (compound) as 100.

[1] = system: airway hyperresponsiveness (AHR) in mouse model of asthma; assay: Airway hyperresponsiveness to methacholine in OVA sensitized and challenged mouse model of asthma; format: in vivo, BALB/c mice
Protocol: The above protocols described in the present invention can be utilized similarly for the synthesis of numerous analogues of ‘triazine-aryl-bis-indole’ class of novel compounds represented by Formula I. • Scheme V • With reference to FIG. 9, mice were sensitized with ovalbumin (OVA) intraperitonially (i.p.) on days 0, 7 and 14 as shown in scheme V. Sham group mice were sensitized with only alum dissolved in PBS. From day 21 to 30, mice were exposed to aerosol of OVA (3%) inhalation 25 minutes daily in a Plexiglas chamber (20×20×10 cm^3). […]
Airway responsiveness was measured by barometric plethysmography using whole-body plethysmography (WBP; Buxco, Troy, N.Y.) 12 hours after last saline or ovalbumin challenge. […] Enhanced pause (Penh) to methacholine as measured using barometric plethysmography is a valid indicator of bronchoconstriction in mice and can be used to measure AHR.
FIG. 3. […] AHR was measured after allergen challenge with increasing concentrations of methacholine and MChPC200 was calculated. […]
Airway responsiveness was measured by barometric plethysmography using whole-body plethysmography (WBP; Buxco, Troy, N.Y.) 12 hours after last saline or ovalbumin challenge. […]

COc1ccc(C(c2[nH]c3ccccc3c2CC(=O)O)c2[nH]c3ccccc3c2CC(=O)O)cc1Oc1nc(NC2CC2)nc(NC2CC2)n1 [Compound 7, 2,2′-[2,2′-3-(4,6-bis-cyclopropylamino)-1,3,5-triazin-2-yl-oxy-4-methoxy-phenyl]-methylene-bis-(1H-indole-3,3-diyl)-diacetic acid]
Inhibition % (PDE-4): 60%
MChPC200 ([1]; OVA/OVA mice, 0.1, 1 and 10 mg/kg orally twice per day, versus OVA/OVA/VEH): significantly attenuated the decrease in MChPC200
dose of maximum effect on MChPC200 ([1]; OVA/OVA mice, orally twice per day): 0.1 mg/kg
